Here are results for 33 molecules from patent publication US11040981B2, “Pyrrolotriazine compounds and methods of inhibiting TAM kinases” (Syros Pharmaceuticals, Inc., priority 2017, dated 2021).

Usually IC50 stands for the point on the concentration scale where inhibition reaches its midpoint.

The target of one assay is T1, TYRO3 (Homo sapiens, UniProt Q06418).
T1 sequence (Q06418 41-890): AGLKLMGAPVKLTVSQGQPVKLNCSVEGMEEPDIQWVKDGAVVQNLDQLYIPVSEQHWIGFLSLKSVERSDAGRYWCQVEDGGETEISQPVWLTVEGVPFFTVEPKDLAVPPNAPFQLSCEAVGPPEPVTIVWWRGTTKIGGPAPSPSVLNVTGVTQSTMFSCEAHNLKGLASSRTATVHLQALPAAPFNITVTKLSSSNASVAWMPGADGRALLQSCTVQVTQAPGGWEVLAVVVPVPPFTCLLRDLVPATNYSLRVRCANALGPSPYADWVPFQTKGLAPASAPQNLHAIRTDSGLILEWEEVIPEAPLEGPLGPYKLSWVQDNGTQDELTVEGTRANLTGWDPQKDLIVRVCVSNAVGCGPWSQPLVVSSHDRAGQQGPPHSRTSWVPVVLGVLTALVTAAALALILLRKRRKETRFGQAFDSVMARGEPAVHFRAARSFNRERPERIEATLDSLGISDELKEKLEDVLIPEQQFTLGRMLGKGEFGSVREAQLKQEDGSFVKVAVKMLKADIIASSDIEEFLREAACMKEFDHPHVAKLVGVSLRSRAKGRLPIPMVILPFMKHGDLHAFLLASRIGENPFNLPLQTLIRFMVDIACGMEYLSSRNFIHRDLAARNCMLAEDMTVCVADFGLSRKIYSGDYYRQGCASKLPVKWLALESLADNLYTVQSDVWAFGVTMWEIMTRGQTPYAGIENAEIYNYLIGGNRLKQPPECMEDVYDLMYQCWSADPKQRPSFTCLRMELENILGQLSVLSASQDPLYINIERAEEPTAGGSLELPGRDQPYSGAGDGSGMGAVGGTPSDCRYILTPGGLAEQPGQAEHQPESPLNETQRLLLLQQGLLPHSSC
The assay can be described thus: TR-FRET kinase activity assay, TYRO3. The format is biochemical. To be noted: ATP at Km, 60 minutes. The gist of the method:
(§1)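 IC50 reflects the drop in TR-FRET between Eu anti-phosphotyrosine antibody and labelled peptide after a 60-minute room-temperature reaction. Buffer was 50 mM HEPES pH 7.5 with 10 mM MgCl2, 1 mM EGTA, 0.01% Brij 35 and 1 mM DTT, with ATP at Km per enzyme and EDTA quench.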

Another assay concerns the target T2, AXL (Homo sapiens, UniProt P30530).
T2 sequence (P30530 26-894): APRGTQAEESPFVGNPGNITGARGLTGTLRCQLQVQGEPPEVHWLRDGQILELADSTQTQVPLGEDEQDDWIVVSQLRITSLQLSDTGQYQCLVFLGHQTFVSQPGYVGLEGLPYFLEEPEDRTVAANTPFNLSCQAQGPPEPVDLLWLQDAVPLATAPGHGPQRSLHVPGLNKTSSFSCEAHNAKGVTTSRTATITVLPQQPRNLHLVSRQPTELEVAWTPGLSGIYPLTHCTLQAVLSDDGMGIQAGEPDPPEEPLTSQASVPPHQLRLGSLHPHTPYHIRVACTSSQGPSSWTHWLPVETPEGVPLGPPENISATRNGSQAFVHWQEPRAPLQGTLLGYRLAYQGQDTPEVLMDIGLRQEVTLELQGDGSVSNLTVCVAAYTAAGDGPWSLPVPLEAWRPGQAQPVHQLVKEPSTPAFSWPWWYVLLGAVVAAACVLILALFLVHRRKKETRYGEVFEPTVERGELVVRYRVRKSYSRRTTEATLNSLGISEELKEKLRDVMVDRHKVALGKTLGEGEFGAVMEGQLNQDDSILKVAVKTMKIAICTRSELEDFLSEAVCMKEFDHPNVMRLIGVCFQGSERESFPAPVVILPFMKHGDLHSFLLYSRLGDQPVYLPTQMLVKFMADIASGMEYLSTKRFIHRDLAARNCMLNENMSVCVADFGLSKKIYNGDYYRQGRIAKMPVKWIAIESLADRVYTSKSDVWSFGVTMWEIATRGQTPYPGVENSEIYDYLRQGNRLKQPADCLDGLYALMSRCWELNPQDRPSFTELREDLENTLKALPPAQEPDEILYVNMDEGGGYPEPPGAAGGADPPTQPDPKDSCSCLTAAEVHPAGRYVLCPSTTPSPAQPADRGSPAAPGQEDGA
Briefly: TR-FRET kinase activity assay, AXL. To be noted: ATP at Km, 60 minutes. Format: biochemical. The gist of the method: as §1
Background: Time-resolved FRET reads energy transfer from a long-lived donor to a nearby acceptor.

As to `COC[C@H](C)N(C)c1ncc2c(-c3ccnc(C)c3)cc([C@H]3CC[C@H](O)CC3)n2n1` [Compound 175, (trans)-4-(2-(((S)-1-methoxypropan-2-yl)(methyl)amino)-5-(2-methylpyridin-4-yl)pyrrolo[2,1-f][1,2,4]triazin-7-yl)cyclohexanol], the IC50 on TYRO3 and against AXL was 1000 to 10000 nM in each case.
Turning to `COC[C@H](C)N(C)c1ncc2c(-c3ccnc(C)c3)cc([C@H]3CC[C@H](OC)CC3)n2n1` [Compound 176, 7-((trans)-4-methoxycyclohexyl)-N-((S)-1-methoxypropan-2-yl)-N-methyl-5-(2-methylpyridin-4-yl)pyrrolo[2,1-f][1,2,4]triazin-2-amine], the concentration for half-maximal inhibition (IC50) at TYRO3 and against AXL was 1000 to 10000 nM in each case.
Regarding `COC[C@H](C)Nc1ncc2c(N3CCCC3=O)cc([C@H]3CC[C@H](O)CC3)n2n1` [Compound 177], the IC50 was in the range of 100 to 1000 nM at TYRO3 and 1000 to 10000 nM against AXL.
With `COC[C@H](C)Nc1ncc2c(N3CC4(COC4)CC3=O)cc([C@H]3CC[C@H](O)CC3)n2n1` [Compound 178], the IC50 was in the range of 100 to 1000 nM at TYRO3 and 1000 to 10000 nM at AXL.
For the molecule `COC[C@H](C)Nc1ncc2c(-c3cccc(CN4CCCC4)c3)cc([C@H]3CC[C@H](O)CC3)n2n1` [Compound 179], the IC50 at TYRO3 was at most 100 nM; on AXL it was 100 to 1000 nM.
The matching figures for `COCC(C)Nc1ncc2c(-c3ccc(C(C)N4CCOCC4)cc3)cc(C3CCC(O)CC3)n2n1` (stereo not drawn) [Compound 181]: at most 100 nM and 100 to 1000 nM.
For `COCC(C)Nc1ncc2c(-c3ccc(C(C)N4CCOCC4)cc3)cc(C3CCC(O)CC3)n2n1` (stereo not drawn) [Compound 182], the IC50 at TYRO3 and at AXL was at most 100 nM in each case.
Take `COC[C@H](C)Nc1ncc2c(-c3ccnc(C)c3)cc([C@H]3CC[C@@H](O)CC3)n2n1` [Compound 183]: the values for the IC50 against TYRO3 and against AXL were at most 100 nM and 100 to 1000 nM, respectively.
The matching figures for `COC[C@H](C)Nc1ncc2c(-c3ccc(C4(N5CCOCC5)CC4)cc3)cc([C@H]3CC[C@H](O)CC3)n2n1` [Compound 184]: at most 100 nM and 100 to 1000 nM.
Consider `COC[C@H](C)Nc1ncc2c(-c3cnn(Cc4nnc(C)s4)c3)cc([C@H]3CC[C@H](O)CC3)n2n1` [Compound 596], for which the IC50 at TYRO3 and against AXL was at most 100 nM throughout.
`C[C@@H](COC(F)F)Nc1ncc2c(-c3ccnc(N4CCO[C@@H](C(C)(C)O)C4)c3)cc([C@H]3CC[C@H](O)CC3)n2n1` [Compound 597]: the IC50 on TYRO3 and against AXL was at most 100 nM throughout.
Turning to `C[C@@H](COC(F)F)Nc1ncc2c(-c3ccnc(N4CCOC(C(C)(C)O)C4)c3)cc([C@H]3CC[C@H](O)CC3)n2n1` (stereo partly drawn) [Compound 598], the half-inhibitory concentration (IC50) against TYRO3 and against AXL was at most 100 nM in each case.
`COC[C@H](C)Nc1ncc2c(-c3cnn(C(C)(C)c4nnc(C(F)F)o4)c3)cc([C@H]3CC[C@H](O)CC3)n2n1` [Compound 599]: the half-inhibitory concentration (IC50) at TYRO3 and against AXL was at most 100 nM each time.
In the case of `COC[C@H](C)Nc1ncc2c(-c3cnn(C(C)(C)c4nnc(C(C)C)o4)c3)cc([C@H]3CC[C@H](O)CC3)n2n1` [Compound 600], the concentration for half-maximal inhibition (IC50) at TYRO3 and at AXL was at most 100 nM in each case.
Take `COC[C@H](C)Nc1ncc2c(-c3cnn(C(C)(C)c4nnc([C@@H]5CCCO5)o4)c3)cc([C@H]3CC[C@H](O)CC3)n2n1` [Compound 601]: the IC50 against TYRO3 and on AXL was at most 100 nM each time.
For `COC[C@H](C)Nc1ncc2c(-c3cnn(C(C)(C)c4nnc([C@H]5CCCO5)o4)c3)cc([C@H]3CC[C@H](O)CC3)n2n1` [Compound 602], the half-inhibitory concentration (IC50) at TYRO3 and on AXL was at most 100 nM throughout.
Consider `COC[C@H](C)Nc1ncc2c(-c3cnn(C(C)(C)c4nnc(C(F)(F)F)o4)c3)cc([C@H]3CC[C@H](O)CC3)n2n1` [Compound 603], for which the IC50 at TYRO3 and on AXL was at most 100 nM in each case.
As to `COC[C@H](C)Nc1ncc2c(-c3cnn(C(C)(C)c4nnco4)c3)cc([C@H]3CC[C@H](O)CC3)n2n1` [Compound 604], the IC50 at TYRO3 and against AXL was at most 100 nM in each case.
For the molecule `COC[C@H](C)Nc1ncc2c(-c3ccnc(N4CCC(C)(O)CC4)c3)cc([C@H]3CC[C@H](O)CC3)n2n1` [Compound 605], the half-inhibitory concentration (IC50) against TYRO3 and against AXL was at most 100 nM in each case.
Regarding `COC[C@H](C)Nc1ncc2c([C@H]3CC[C@H](C(=O)N4CCN(C)CC4)CC3)cc([C@H]3CC[C@H](O)CC3)n2n1` [Compound 606], the IC50 against TYRO3 and against AXL was at most 100 nM throughout.
As for `COC[C@H](C)Nc1ncc2c([C@H]3CC[C@@H](C(=O)N4CCN(C)CC4)CC3)cc([C@H]3CC[C@H](O)CC3)n2n1` [Compound 607], the IC50 against TYRO3 and against AXL was at most 100 nM in each case.
With `C[C@@H](CC(F)(F)F)Nc1ncc2c(-c3cnn(C(C)(C)C(=O)N4CC5(COC5)C4)c3)cc([C@H]3CC[C@H](O)CC3)n2n1` [Compound 608], the IC50 on TYRO3 and at AXL was at most 100 nM in each case.
On to `C[C@@H](CC(F)(F)F)Nc1ncc2c(-c3cnn(C(C)(C)C(=O)C4COC4)c3)cc([C@H]3CC[C@@](C)(O)CC3)n2n1` [Compound 609], for which the IC50 against TYRO3 and against AXL was at most 100 nM throughout.
In the case of `C[C@@H](CC(F)(F)F)Nc1ncc2c(-c3cnn(C(C)(C)C(=O)C4COC4)c3)cc([C@H]3CC[C@](C)(O)CC3)n2n1` [Compound 610], the concentration for half-maximal inhibition (IC50) against TYRO3 and at AXL was at most 100 nM throughout.
Consider `COCC(C)Nc1ncc2c(-c3ccc(C(C)(C)c4nnc(C)o4)s3)cc(C3CCC(O)CC3)n2n1` (stereo not drawn) [Compound 611], for which the 50% inhibitory concentration (IC50) at TYRO3 and against AXL was at most 100 nM each time.
For the molecule `COC[C@H](C)Nc1ncc2c(-c3cnn(C(C)(C)C(=O)N4CCCC4)c3)cc([C@H]3CC[C@H](O)CC3)n2n1` [Compound 612], the IC50 on TYRO3 and against AXL was at most 100 nM throughout.
`C[C@@H](COC(F)F)Nc1ncc2c(-c3cnn(C(C)(C)C(=O)N4CC5(COC5)C4)c3)cc([C@H]3CC[C@H](O)CC3)n2n1` [Compound 613]: the IC50 on TYRO3 and on AXL was at most 100 nM in each case.
Consider `COC[C@H](C)Nc1ncc2c(-c3cnn(C4COC4)c3)cc([C@H]3CC[C@H](O)C(F)(F)C3)n2n1` [Compound 614], for which the half-maximal inhibitory concentration (IC50) against TYRO3 and at AXL was at most 100 nM throughout.
On to `CCC1(O)CCC(c2cc(-c3cnn(C4COC4)c3)c3cnc(NC(C)COC)nn23)CC1` (stereo not drawn) [Compound 615], for which the IC50 at TYRO3 and against AXL was at most 100 nM in each case.
For the molecule `CC[C@]1(O)CC[C@@H](c2cc(-c3cnn(C4COC4)c3)c3cnc(N[C@@H](C)COC)nn32)CC1` [Compound 616], the half-maximal inhibitory concentration (IC50) against TYRO3 and against AXL was at most 100 nM in each case.
For the molecule `COC[C@H](C)Nc1ncc2c(-c3cnn(C4COC4)c3)cc([C@H]3CC[C@](O)(C(C)C)CC3)n2n1` [Compound 617], the IC50 at TYRO3 and against AXL was at most 100 nM throughout.
As for `COC[C@H](C)Nc1ncc2c(-c3cnn(C4COC4)c3)cc([C@H]3CC[C@@](O)(C(C)C)CC3)n2n1` [Compound 618], the IC50 on TYRO3 and against AXL was at most 100 nM each time.
Consider `COC[C@H](C)Nc1ncc2c(-c3ccnc(C(C)(C)O)c3)cc([C@H]3CC[C@H](O)CC3)n2n1` [Compound 619], for which the IC50 against TYRO3 and on AXL was at most 100 nM throughout.
